Marks after values point to notes of the source that are not given here.
Key:
[1] = tested on: MIF-induced proliferation of S112 human fibroblasts; experiment: MIF-induced human fibroblast proliferation (3H-thymidine incorporation); type: cell-based
Description: The activity of a compound of formula (I) was studied in a bioassay utilising MIF-induced proliferation of human dermal fibroblasts. […] S112 human dermal fibroblasts were propagated in RPMI/10% foetal calf serum (FCS). Prior to experimentation, cells were seeded at 10^5 cells/ml in RPMI/0.1% BSA for 18 hours. Cells were treated with recombinant human macrophage migration inhibitory factor (MIF) 50 ng/ml and/or a compound of the invention at a concentration of 1 nM. The compound was combined with MIF at time point −30 minutes, prior to adding to cell culture at time point zero. At time point zero, culture medium was replaced with RPMI/10% FCS and treatments administered. At time point 30 hours, cells were pulsed with 1 μCi ^3H-thymidine. At time point 48 hours, cells were harvested using a semi-automated cell harvester. The radioactivity incorporated into DNA was determined by liquid scintillation counting, with results expressed as ^3H-thymidine incorporation.

[2] = tested on: IL-1 induced COX-2 expression; experiment: MIF-dependent IL-1 induced fibroblast cyclooxygenase-2 expression (flow cytometry); type: cell-based, human; details: for Mean % inhibition COX2 expression: S112 fibroblasts, IL-1 0.1 ng/ml, 6 h
Text: The activity of the compounds of formula (I) were further studied in a bioassay utilising MIF-dependent activation of human dermal fibroblasts. Sampey et al have shown that induction of the expression of cyclooxygenase-2 (COX-2) by the cytokine interleukin 1 (IL-1) is dependent upon the presence of MIF, i.e. can be prevented using specific anti-MIF monoclonal antibody ^(17). IL-1-induced COX-2 expression is therefore a MIF-dependent event.
S112 human dermal fibroblasts were propagated in RPMI/10% foetal calf serum (FCS). Prior to experimentation, cells were seeded at 2×10^5 cells/ml in RPMI/0.1% BSA for 18 hours. […] After 6 hours, cells were collected and intracellular COX-2 protein determined by permeabilisation flow cytometry, as described by Sampey et al ^(18). Cells permeabilised with 0.2% saponin were sequentially labelled with a mouse anti-human COX-2 monoclonal antibody and with sheep-anti-mouse F(ab)2 fragment labelled with fluoroscein isothiocyanate. Cellular fluorescence was determined using a flow cytometer. At least 5000 events were counted for each reading, each of which was performed in duplicate, and the results expressed in mean fluorescence intensity (MFI) after subtraction of negative control-labelled cell fluorescence.
In Table 2 and FIG. 2, the effect of each concentration of 2-(2-hydroxyethoxy)-2-(4-hydroxy-3-methylphenyl)-1,3-dioxolane (Compound 1) was determined by subtracting the IL-1+ compound-treated cell MFI from the IL-1-treated cell MFI, and expressed as % inhibition.

[3] = tested on: IL-1 induced COX-2 expression; experiment: Combination of MIF-antagonist with glucocorticoid: IL-1 induced fibroblast COX-2 expression; type: cell-based, human
Description: S112 human dermal fibroblasts were propagated in RPMI/10% foetal calf serum (FCS). Prior to experimentation, cells were seeded at 2×10^5 cells/ml in RPMI/0.1% BSA for 18 hours. Cells were treated with compound at 1-100 μM and 30 minutes later with recombinant human IL-1 (0.1 ng/ml). After 6 hours, cells were collected and intracellular COX-2 protein determined by permeabilisation flow cytometry, as described by Sampey et al ^(18). Cells permeabilised with 0.2% saponin were sequentially labelled with a mouse anti-human COX-2 monoclonal antibody and with sheep-anti-mouse F(ab)2 fragment labelled with fluoroscein isothiocyanate. Cellular fluorescence was determined using a flow cytometer. At least 5000 events were counted for each reading, each of which was performed in duplicate, and the results expressed in mean fluorescence intensity (MFI) after subtraction of negative control-labelled cell fluorescence.
The above in vitro assay (Biological Example 2) for analysing the effect of MIF antagonists on IL-1 induced COX-2 expression was performed using 2-(2-hydroxyethoxy)-2-(4′-hydroxy-3′-methylphenyl)-1,3-dioxolane (Compound 1) (50 μM), dexamethasone (1 nM) or a combination of dexamethasone (1 nM) and Compound 1 (50 μM). COX-2 expression was expressed as the mean fluorescence intensity (MFI) as measured by flow cytometry, after deduction of the MFI for control-labelled samples, as described by Sampey et al. ^(18).

[4] = tested on: S112 human dermal fibroblasts; experiment: Cytotoxicity: apoptosis by annexin V and propidium iodide flow cytometry; type: cell-based; details: 50 μM versus control-treated cells; FIG. 7
Text: A valuable characteristic of a therapeutic material is a lack of toxicity. The compounds of formula (I) may have low toxicity towards cells. To examine this in vitro, the ability of 2-(2-hydroxyethoxy)-2-(4-hydroxy-3-methylphenyl)-1,3-dioxolane (Compound 1) to induce apoptosis (“programmed cell death) was investigated. A lack of cytotoxicity would be evidenced by the finding of equivalent proportions of apoptotic and viable cells in control- and compound-treated cells.
To examine the cytotoxicity of compounds of formula (I), S112 human dermal fibroblasts were exposed to a therapeutic concentration (50 μM) of 2-(2-hydroxyethoxy)-2-(4-hydroxy-3-methylphenyl)-1,3-dioxolane (Compound 1) or vehicle (control) and analysed for apoptosis by flow cytometric analysis of annexin V and propidium iodide staining, as described by Leech et al. ^(19). Toxicity was assessed by analysis of apoptosis using flow cytometric detection of cell surface Annexin V binding and propidium iodide staining. At least 5000 events were analysed for each experiment. Cells positive for both Annexin V and propidium iodide were designated as apoptotic and cells negative for both Annexin V and propidium iodide were designated as viable. Results are expressed as the percentage (%) of cells with each of these labels.

[5] = tested on: antigen-specific T cell activation; experiment: MIF-dependent antigen-specific T cell activation (splenocytes, 3H-thymidine); type: cell-based, mouse; details: 100 nM-10 μM; mBSA 10 μg/ml; spleen cells of immunized C57Bl/6 mice; P<0.05; FIG. 5
Text: The activity of compounds of formula (I) was further studied in a bioassay utilising MIF-dependent activation of murine T cell activation. The activation of T lymphocytes in response to exposure to a recall antigen is known to be dependent on the presence of MIF, i.e. can be prevented using specific anti-MIF monoclonal antibody^(7). Antigen-induced T cell activation is therefore a MIF-dependent phenomenon.
Splenocytes were obtained by Hank's buffered saline flushing of spleens obtained from C57Bl/6 mice previously immunized with methylated bovine serum albumin (mBSA, Sigma Chemical Co., Castle Hill, Australia). Mice were immunized on day 0 with 200 μg mBSA emulsified in 0.2 ml of Freund's complete adjuvant (FCA) injected subcutaneously into the flank skin. On day 7, the mice received 100 μg mBSA/0.1 ml FCA by intradermal injection at the base of the tail. Spleens were removed on day 14 after first immunisation and a single cell suspension was prepared in DMEM containing 5% FCS and 0.05% 2-mercaptoethanol. […] The T cell proliferation response was determined by measuring the amount of [^3H] thymidine incorporation during the final 18 hr. The cells were harvested and radioactivity incorporation into the DNA was measured with a Wallac 1409 liquid scintillation counter (Pharmacia, Turku, Finland).

Structure (SMILES)	Mean cpm (3H-thymidine incorporation) ([1]; S112 cells, MIF 50 ng/ml + compound 1 nM, untreated 3245, MIF alone 4415, n=9)	inhibition of MIF-induced S112 human fibroblast proliferation ([1]; compound 1 nM pre-incubated with MIF, P<0.05)	Mean % inhibition COX2 expression ([2]; 0.01 μM)	Mean % inhibition COX2 expression ([2]; 0.1 μM)	Mean % inhibition COX2 expression ([2]; 1 μM)	Mean % inhibition COX2 expression ([2]; 10 μM)	reduction in IL-1 induced COX-2 expression ([2]; 50 μM, P<0.01, FIG. 2)	Mean % inhibition COX2 expression ([2]; 50 μM)	dose dependence of reduction in COX-2 expression ([2]; Table 2 and FIG. 3)	Mean COX-2 expression (MFI) ([3]; IL-1 + dexamethasone 1 nM + Compound 1 50 μM, control 0.7400, IL-1 49.37)	enhancement of dexamethasone inhibition of IL-1-induced COX-2 expression ([3]; dexamethasone 1 nM + Compound 1 50 μM versus dexamethasone alone, P<0.05)	apoptotic cell numbers (Annexin V and propidium iodide positive) [4]	viable cell numbers (Annexin V and propidium iodide negative) [4]	inhibition of IL-induced COX-2 expression, MFI ([2]; IL-1+cpd2 versus IL-1, P<0.05, FIG. 4)	reduction in antigen-specific T cell activation [5]
Cc1cc(C2(OCCO)OCCO2)ccc1O [Compound 1, 2-(2-hydroxyethoxy)-2-(4-hydroxy-3-methylphenyl)-1,3-dioxolane]	2994* cpm	significantly inhibited	10.5%	13.2%	15.6* %	19.5* %	significant reduction	31.4* %	dose-dependent reduction	6.013* MFI	significantly greater inhibition	No significant increase	no significant decrease	–	–
OCCOC1(c2ccc(O)cc2)OCCO1 [Compound 2, 2-(2-hydroxyethoxy)-2-(4-hydroxyphenyl)-1,3-dioxolane]	–	–	–	–	–	–	–	–	–	–	–	–	–	Significant inhibition	significant dose-dependent reduction

— US7863313B2, “Methods for the treatment of inflammatory diseases” (Cortical PTY LTD, priority 2003, dated 2011)
